Experimental data from PubChem BioAssay AID1259407 (Chemical Carcinogenesis Research Information System (CCRIS), 2018).
Activity calls are given as the source filed them. How the calls were made is not given here.

Tested on: CCRIS mutagenicity, Ames/micronucleus/aberration tests
Experiment: CCRIS mutagenicity studies

[Na+]
mutagenic call (Test System: AMES SALMONELLA TYPHIMURIUM, Strain/Indicator: TA97, Metabolic Activation: HAMSTER, LIVER, S-9, AROCLOR 1254 (10 OR 30%), Method: PREINCUBATION): inactive; negative
mutagenic call (Test System: AMES SALMONELLA TYPHIMURIUM, Strain/Indicator: TA97, Metabolic Activation: NONE, Method: PREINCUBATION): inactive; negative
mutagenic call (Test System: AMES SALMONELLA TYPHIMURIUM, Strain/Indicator: TA97, Metabolic Activation: RAT, LIVER, S-9, AROCLOR 1254 (10 OR 30%), Method: PREINCUBATION): inactive; negative
mutagenic call (Test System: AMES SALMONELLA TYPHIMURIUM, Strain/Indicator: TA98, Metabolic Activation: HAMSTER, LIVER, S-9, AROCLOR 1254 (10 OR 30%), Method: PREINCUBATION): inactive; negative
mutagenic call (Test System: AMES SALMONELLA TYPHIMURIUM, Strain/Indicator: TA98, Metabolic Activation: NONE, Method: PREINCUBATION): inactive; negative
mutagenic call (Test System: AMES SALMONELLA TYPHIMURIUM, Strain/Indicator: TA98, Metabolic Activation: RAT, LIVER, S-9, AROCLOR 1254 (10 OR 30%), Method: PREINCUBATION): inactive; negative
mutagenic call (Test System: AMES SALMONELLA TYPHIMURIUM, Strain/Indicator: TA100, Metabolic Activation: HAMSTER, LIVER, S-9, AROCLOR 1254 (10 OR 30%), Method: PREINCUBATION): inactive; negative
mutagenic call (Test System: AMES SALMONELLA TYPHIMURIUM, Strain/Indicator: TA100, Metabolic Activation: NONE, Method: PREINCUBATION): inactive; negative
mutagenic call (Test System: AMES SALMONELLA TYPHIMURIUM, Strain/Indicator: TA100, Metabolic Activation: RAT, LIVER, S-9, AROCLOR 1254 (10 OR 30%), Method: PREINCUBATION): inactive; negative
mutagenic call (Test System: AMES SALMONELLA TYPHIMURIUM, Strain/Indicator: TA1535, Metabolic Activation: HAMSTER, LIVER, S-9, AROCLOR 1254 (10 OR 30%), Method: PREINCUBATION): inactive; negative
mutagenic call (Test System: AMES SALMONELLA TYPHIMURIUM, Strain/Indicator: TA1535, Metabolic Activation: NONE, Method: PREINCUBATION): inactive; negative
mutagenic call (Test System: AMES SALMONELLA TYPHIMURIUM, Strain/Indicator: TA1535, Metabolic Activation: RAT, LIVER, S-9, AROCLOR 1254 (10 OR 30%), Method: PREINCUBATION): inactive; negative
mutagenic call (Test System: AMES SALMONELLA TYPHIMURIUM, Strain/Indicator: TA1537, Metabolic Activation: HAMSTER, LIVER, S-9, AROCLOR 1254 (30%), Method: PREINCUBATION): inactive; negative
mutagenic call (Test System: AMES SALMONELLA TYPHIMURIUM, Strain/Indicator: TA1537, Metabolic Activation: NONE, Method: PREINCUBATION): inactive; negative
mutagenic call (Test System: AMES SALMONELLA TYPHIMURIUM, Strain/Indicator: TA1537, Metabolic Activation: RAT, LIVER, S-9, AROCLOR 1254 (30%), Method: PREINCUBATION): inactive; negative
mutagenic call (Test System: CHINESE HAMSTER OVARY, Strain/Indicator: CHO-K1-BH4 (HGPRT), Metabolic Activation: NONE, Method: SUSPENSION/PLATE): inactive; negative
mutagenic call (Test System: CHINESE HAMSTER OVARY, Strain/Indicator: CHO-K1-BH4 (HGPRT), Metabolic Activation: RAT, LIVER, S-9, AROCLOR, Method: SUSPENSION/PLATE): inactive; negative
mutagenic call (Test System: MOUSE LYMPHOMA, Strain/Indicator: L5178Y (TK+/TK-), Metabolic Activation: NONE, Method: SUSPENSION/PLATE): active; positive

Cc1nc2c(ccc3ccc4ccc(O)cc4c32)[nH]1
mutagenic call (Test System: AMES SALMONELLA TYPHIMURIUM, Strain/Indicator: TA98, Metabolic Activation: RAT, LIVER, S-9, AROCLOR 1254, Method: STANDARD PLATE): active; positive
mutagenic call (Test System: AMES SALMONELLA TYPHIMURIUM, Strain/Indicator: TA98, Metabolic Activation: RAT, LIVER, S-9, AROCLOR, Method: STANDARD PLATE): active; positive
